In US11453695B2, “Nucleoside analogues and methods of use thereof” (priority 2016, dated 2022):

Legend:
[1] = Cell toxicity in the HBV assay; type: cell-based; details: human, HepG-2 cells
HBV/ayW1 = assay: Antiviral effect against HBV in HepG-2 cells; type: cell-based; details: Hepatitis B virus, HepG2; HBV/ayW1 in HepG-2 cells

COc1nc(Cl)nc2c1ncn2[C@@H]1O[C@H](COP(=O)(N[C@@H](C)C(=O)OC(C)C)Oc2ccccc2)C(C)(Cc2nnn[nH]2)[C@H]1F (stereo partly drawn) [LCB-2147]
CC50 [1]: > 100 µM | EC50 (HBV/ayW1): 4 µM | EC90 (HBV/ayW1): 16 µM
